These results are taken from patent publication US7612089B2, “Tetrahydroisoquinolines as factor Xa inhibitors” (Portola Pharmaceuticals, Inc., priority 2004, dated 2009).

The target in the test is T1, human plasma protein factor Xa (Homo sapiens, UniProt P00742).
T1 construct: The human plasma protein factor Xa was purchased; purchased Haematologic Technologies (Essex Junction, Vt.); host or cells: human plasma
Description: Factor Xa IC50 determination (cleavage of paranitroanilide substrate S-2765). It is filed as biochemical. The following applies: fXa 1 nM, S2765 100 μM, Tris buffered saline pH 7.4, room temperature. The text has this: This example illustrates methods for evaluating the compounds of the invention, along with results obtained for such assays. The in vitro and in vivo Factor Xa isoform activities of the inventive compounds can be determined by various procedures known in the art, such as a test for their ability to inhibit the activity of the Factor Xa isoform. […] The IC50 value is the concentration (in nM) of the compound required to provide 50% inhibition of Factor Xa isoform.
An in vitro assay for detecting and measuring inhibition activity against Factor Xa is as follows:
IC50 and Ki Determinations:
The substrate S-2765 (Z-D-Arg-Gly-Arg-pNA.HCl) was obtained from Diapharma (West Chester, Ohio).
The human plasma protein factor Xa was purchased from Haematologic Technologies (Essex Junction, Vt.).
All assays, which are performed in 96-well microtiter plates, measure proteolytic activity of the enzyme (factor Xa) by following cleavage of paranitroanilide substrate. The assay buffer used for proteolytic assays was Tris buffered saline (20 mM Tris, 150 mM NaCl, 5 mM CaCl2, 0.1% Bovine serum albumin (BSA), 5% Dimethly Sulfoxide (DMSO) pH 7.4). In a 96-well microtiter plate, inhibitor was serially diluted to give a range of concentrations from 0.01 nM to 10 μM (final). Duplicate sets of wells were assayed and control wells without inhibitor were included. Enzyme was added to each well, (fXa concentration=1 nM), the plate was shaken for 5 seconds and then incubated for 5 minutes at room temperature. S2765 was added (100 μM final) and the plate was shaken for 5 seconds (final liquid volume in each well was 200 μl). The degree of substrate hydrolysis was measured at 405 nm on a Thermomax plate reader (Molecular Devices, Sunnyvale, Calif.) for 2 minutes. The initial velocities (mOD/min), for each range of inhibitor concentrations, were fitted to a four parameter equation using Softmax data analysis software. The parameter C, derived from the resulting curve-fit, corresponded to the concentration for half maximal inhibition (IC50).

Structures are written as SMILES.

T1 sequence (P00742 235-488 limits assumed): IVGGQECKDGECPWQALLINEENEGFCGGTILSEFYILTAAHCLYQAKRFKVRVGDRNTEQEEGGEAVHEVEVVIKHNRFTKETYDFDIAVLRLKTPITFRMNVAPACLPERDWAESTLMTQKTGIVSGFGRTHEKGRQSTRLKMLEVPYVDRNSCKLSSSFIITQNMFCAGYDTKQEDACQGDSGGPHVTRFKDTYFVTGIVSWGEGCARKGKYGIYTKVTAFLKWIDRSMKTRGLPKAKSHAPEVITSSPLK
T1 sequence (P00742 41-179 partner limits assumed): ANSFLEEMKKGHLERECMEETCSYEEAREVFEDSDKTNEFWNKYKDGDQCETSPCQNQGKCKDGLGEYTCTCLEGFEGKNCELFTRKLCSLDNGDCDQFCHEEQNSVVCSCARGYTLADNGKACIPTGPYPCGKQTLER

The IC50 is the concentration that gives 50% inhibition. `O=C(Nc1ccc(-n2ccccc2=O)cc1F)[C@H]1Cc2ccccc2CN1C(=O)Nc1ccc(Cl)cc1` [Example 38, (3R) N-[4-(2-pyridon-1-yl)-2-fluorophenyl]-2N-(4-chlorophenylaminocarbonyl)-1,2,3,4-tetrahydroisoquinoline-3-carboxamide] came in with an IC50 of no more than 0.1 µM. As for `O=C(Nc1ccc(-n2ccccc2=O)cc1)C1Cc2cc(O)ccc2CN1C(=O)Nc1ccc(Cl)cc1` (stereo not drawn) [Example 39, N-[4-(2-pyridon-1-yl)phenyl]-2N-(4-chlorophenylaminocarbonyl)-6-hydroxy-1,2,3,4-tetrahydroisoquinoline-3-carboxamide], the IC50 was no more than 0.1 µM. The same measure for `CN1CCCN(c2ccc(NC(=O)C3Cc4cc(O)ccc4CN3C(=O)Nc3ccc(Cl)cc3)cc2)CC1` (stereo not drawn) [Example 40, N-[4-(4-methyl-homopiperazinyl)phenyl]-2N-(4-chlorophenylaminocarbonyl)-6-hydroxy-1,2,3,4-tetrahydroisoquinoline-3-carboxamide]: no more than 0.1 µM; for `O=C(Nc1ccc(-n2ccccc2=S)cc1)C1Cc2cc(O)ccc2CN1C(=O)Nc1ccc(Cl)cc1` (stereo not drawn) [Example 41, N-[4-(2-thiopyridon-1-yl)phenyl]-2N-(4-chlorophenylaminocarbonyl)-6-hydroxy-1,2,3,4-tetrahydroisoquinoline-3-carboxamide]: no more than 0.1 µM; for `O=C([C@H]1Cc2ccccc2CN1C(=O)Nc1ccc(Cl)cc1)N1CCC(N2CCCCC2=O)CC1` [Example 42, (3R) 4-(2-piperidinon-1-yl)piperidin-1-yl 2N-(4-chlorophenylaminocarbonyl)-1,2,3,4-tetrahydroisoquinoline-3-carboxamide]: no more than 0.1 µM.

In the case of `O=C([C@H]1Cc2ccccc2CN1C(=O)Nc1ccc(Cl)cc1)N1CCC(n2ccccc2=O)CC1` [Example 43, (3R) 4-(2-pyridon-1-yl)piperidin-1-yl 2N-(4-chlorophenylaminocarbonyl)-1,2,3,4-tetrahydroisoquinoline-3-carboxamide], the IC50 was no more than 0.1 µM. `O=C([C@H]1Cc2ccccc2CN1C(=O)Nc1ccc(Cl)cc1)N1CCC(N2CCOCC2=O)CC1` [Example 44, (3R) 4-(3-morpholinon-4-yl)piperidin-1-yl 2N-(4-chlorophenylaminocarbonyl)-1,2,3,4-tetrahydroisoquinoline-3-carboxamide] came in with an IC50 of no more than 0.1 µM. For the molecule `CN1CCN(c2ccc(NC(=O)[C@H]3Cc4ccccc4CN3C(=O)Nc3ccc(Cl)cc3)cc2)C(=O)C1` [Example 45, (3R) N-[4-(4-methyl-2-piperazinon-1-yl)phenyl]-2N-(4-chlorophenylaminocarbonyl)-1,2,3,4-tetrahydroisoquinoline-3-carboxamide], the IC50 is 0.1 to 0.5 µM.

For the molecule `CN1CCCN(c2ccc(NC(=O)[C@H]3Cc4ccccc4CN3C(=O)Nc3ccc(Cl)cc3)cc2)C(=O)C1` [Example 46, (3R) N-[4-(4-methyl-2-homopiperazinon-1-yl)phenyl]-2N-(4-chlorophenylaminocarbonyl)-1,2,3,4-tetrahydroisoquinoline-3-carboxamide], the IC50 was no more than 0.1 µM. Take `O=C(Nc1ccc(-n2ccccc2=O)cc1)[C@H]1Cc2ccccc2CN1C(=O)Nc1ccc(F)cc1` [Example 47, (3R) N-[4-(2-pyridon-1-yl)phenyl]-2N-(4-fluorophenylaminocarbonyl)-1,2,3,4-tetrahydroisoquinoline-3-carboxamide]: the IC50 is no more than 0.1 µM. The molecule `O=C(Nc1ccc(-n2ccccc2=O)cc1)[C@H]1Cc2ccccc2CN1C(=O)Nc1ccc(Cl)s1` [Example 48, (3R) N-[4-(2-pyridon-1-yl)phenyl]-2N-[5-(2-chlorothiophene)aminocarbonyl]-1,2,3,4-tetrahydroisoquinoline-3-carboxamide] had an IC50 of no more than 0.1 µM.

Turning to `CN1CCCN(c2ccc(NC(=O)[C@H]3Cc4ccccc4CN3C(=O)Nc3ccc(Cl)s3)cc2)CC1` [Example 49, (3R) N-[4-(4-methyl-homopiperazin-1-yl)phenyl]-2N-[5-(2-chlorothiophene)aminocarbonyl]-1,2,3,4-tetrahydroisoquinoline-3-carboxamide], the IC50 was no more than 0.1 µM.
